Common to all, as to type: biochemical
One experiment deals with T1, α-synuclein (α-syn) (Homo sapiens, UniProt P37840).
T1 construct: purchased rPeptide
In words: Thioflavin-T (ThT) fluorescence assay of α-syn fibril formation. As to the method:
Thioflavin-T (ThT) fluorescence assays. Thioflavin-T (ThT) fluorescence assays were used to monitor fibril formation of recombinant Ap (fragments 1-40 and 1-42), recombinant α-syn, recombinant tau isoform 2N4R, synthetic IAPP, and synthetic TTR peptides treated with BTA and its derivatives. The IAPP ThT assay was performed in 10 mM PBS (pH 7.4) at a final concentration of 10 μM for both IAPP and ThT as published previously. Aβ fragments 1-40 and 1-42 were tested at 7 μM in 10 mM of PBS using ThT at a final concentration of 20 μM. Kinetics of α-syn fibrillization were performed as published previously.^36-37 TTR fragment kinetics of fibril formation were assessed at 10 μM in 100 mM sodium acetate buffer supplemented with 100 mM KCl and 1 mM ethylenediaminetetraacetic acid (EDTA) (pH 4) with 20 μM ThT. The fluorescence emission experiments were performed with the excitation and emission wavelengths set at 440 and 485 nm, respectively, with a Synergy HT multi-mode microplate reader (BioTek, Winooski, VT). Samples were measured in three replicates, and the experiments were repeated three times using at least two different stock solutions. For each time point, arbitrary units of fluorescence were calculated from the mean values normalized against the maximum value in each completed assay. The lag time for each condition was calculated as previously described. All results contained in histograms were presented as mean±SEM. Data were analyzed by the one-way analysis of variance with Dunnett's multiple comparisons between controls and compounds. Differences were considered statistically significant at p<0.05.
Compounds with the highest anti-fibrillary activity were tested at 3.125, 6.25, 12.5, 25, 50, and 100 μM to obtain dose-response curves with prepared α-syn and 2N4R tau at 6.25 μM and 6 μM, respectively. Compounds were tested with α-syn using a previously published procedure. Concerning the tau (isoform 2N4R) kinetics of fibril formation, measurements of ThT fluorescence were performed with a solution of the protein diluted to a final concentration of 6 μM in PBS (pH 7.4) supplemented with 1.5 μM heparin, 20 μM ThT, 2.5 mM DTT, and 100 μM compound. Aliquots of the diluted protein solution (100 μL each) were pipetted into the wells of a 96-well plate, and a Teflon ball was added to each well. The plate was incubated at 37° C. with constant shaking at 1,000 rpm in a Tecan Spark plate reader. ThT fluorescence was measured every 15 minutes with excitation and emission wavelengths of 440 nm and 480 nm, and the data were plotted using GraphPad Prism.

In experiment [1] the target is T2, α-syn (Homo sapiens, UniProt P37840).
T2 construct: purchased rPeptide
In words: Photo-induced cross-linking of unmodified proteins (PICUP), α-syn oligomerization. The following applies: for α-syn oligomer formation (PICUP): compound 50 μM, molar ratio 1:5 (protein:compound). As to the method:
(§1) Photo-induced Cross-linking of Unmodified Proteins (PICUP) Assay. To induce oligomerization by cross-linking, α-syn (from Rpeptide, LLC) and tau isoform 2N4R were diluted in 10 mM phosphate buffer (pH 7.4) to reach a final concentration of 10 μM. Different compounds were added to the protein solution at a final concentration of 50 μM, resulting in a molar ratio of 1:5. To confirm the gradual effect of the compounds on the inhibition of α-syn oligomerization, the compounds were tested at final concentrations of 3.125, 6.25, 12.5, 25, and 50 μM. The controls consisted of samples without light exposition, without Ru(bpy) or ammonium persulfate, and without compound (i.e., 0.125% DMSO). The cross-linking reaction was initiated by the addition of 2 μL of Ru(bpy) (300 μM final concentration) and 2 μL ammonium persulfate (6 mM final concentration). Samples were irradiated immediately. Light exposure was of a one-second duration for α-syn and a three-second duration for tau isoform 2N4R, with a 53 W (120 V) incandescent lamp installed in a homemade dark-box. Each tube contained a final volume of 20 μL. After irradiation, 8.3 μL of Laemmli loading buffer containing 15% β-mercaptoethanol were immediately added to the solution, followed by incubation at 95° C. for 10 minutes. The cross-linked samples were separated on a 16% SDS-PAGE gel and visualized by Coomassie blue staining.

In a further experiment the target is T3, tau isoform 2N4R (Homo sapiens, UniProt P10636).
T3 construct: made in house; host or cells: E. coli BL21(DE3)
T3 sequence (P10636 1-441 isoform P10636-8): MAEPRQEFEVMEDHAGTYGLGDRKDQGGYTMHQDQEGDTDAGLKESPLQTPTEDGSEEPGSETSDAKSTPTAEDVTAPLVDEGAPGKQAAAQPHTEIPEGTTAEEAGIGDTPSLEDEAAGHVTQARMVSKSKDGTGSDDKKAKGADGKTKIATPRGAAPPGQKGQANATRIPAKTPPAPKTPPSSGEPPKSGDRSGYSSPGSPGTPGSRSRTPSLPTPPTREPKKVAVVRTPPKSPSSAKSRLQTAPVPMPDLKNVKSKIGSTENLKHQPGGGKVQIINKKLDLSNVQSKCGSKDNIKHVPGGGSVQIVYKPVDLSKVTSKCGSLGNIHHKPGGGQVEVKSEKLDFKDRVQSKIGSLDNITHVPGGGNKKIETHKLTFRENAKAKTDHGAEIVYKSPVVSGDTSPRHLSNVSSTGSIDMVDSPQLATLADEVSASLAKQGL
The experiment is described as follows: PICUP, tau isoform 2N4R oligomerization. As to the method: The bacterial expression plasmid consisting of the vector pRK172 carrying a cDNA encoding the human Tau 2N4R isoform was obtained from Dr. David Eliezer (Weill Cornell Medicine, New York, NJ). For protein expression, E. coli BL21(DE3) cells were transformed with the plasmid and grown in LB media supplemented with ampicillin (100 μg/mL). Protein over-expression was induced by the addition of 1 mM IPTG for 4 hours at 37° C., and cells were pelleted by centrifugation at 6,000 g for 15 minutes at 4° C. The cells were resuspended in lysis buffer (20 mM MES, 400 mM NaCl, 0.2 mM MgCl2, 1 mM EGTA, protease inhibitor cocktail (P8340, Sigma Aldrich), 0.25 mg/mL lysozyme, and 1 μg/mL DNase 1, pH 6.8) and lysed by a French press cell disruptor at 4° C., after which the lysate was boiled for 20 minutes. Denatured proteins were pelleted by centrifugation at 30,000 g for 30 minutes at 4° C., and the supernatant was dialyzed overnight against cation exchange buffer (20 mM MES, 50 mM NaCl, 1 mM MgCl2, 1 mM EGTA, 2 mM DTT, 0.1 mM PMSF, pH 6.8). The dialysate was loaded onto a HiPrep SP HP column, and proteins were eluted with a linear gradient ranging from 50 mM to 1 M NaCl. Fractions containing tau isoform 2N4R were pooled, and the resulting protein solution was dialyzed against PBS (pH 7.4) and stored at −80° C.
as §1

The target of experiment [2] is T2, α-syn. In words: Transmission electron microscopy (TEM) of α-syn fibrils. The following applies: compound 100 μM. As to the method:
Transmission electron microscopy (TEM). After performing analysis with ThT fluorescence assay, TEM was utilized to detect fibril formation. A volume of 10 μL was applied to a 400-mesh Formvar-carbon-coated copper grid (Electron Microscopy Sciences, Hatfield, PA). The grids were incubated for 1 minute and washed three times with distilled water. They were carefully air-dried and incubated for 1 minute in a fresh solution of 1% uranyl acetate. Samples were air-dried and observed using a transmission microscope. Visualization of the grids was performed with TEM (JEOL 1400 Flash, Japan). Acquisition of pictures was performed with settings of accelerating voltage of 100 kV and magnification of 25 k and/or 40 k.

Consider 1 compound from patent publication US20260224538A1 (Purdue Research Foundation, priority 2023, published 2026).

Take `Nc1nsc2ccc([N+](=O)[O-])cc12` [A, 5-nitro-1,2-benzothiazol-3-amine]: the “α-syn fibrillization (ThT), dose response” value at α-synuclein (α-syn) (3.125-100 μM, plateau phase) is recorded as “protein fibrillization was reduced”. Besides, the remaining activity at 100 µM at α-synuclein (α-syn) (compounds at 100 μM, α-syn 6.25 μM, control 0.25% DMSO, read-out: ThT a-Syn (%), maximum thioflavin T (ThT) intensity in percentage) stood at 36.2 ± 3.1%. For the same compound, the “thioflavin T fluorescence intensity, α-syn” value at α-synuclein (α-syn) (screen on prone-to-aggregate proteins (FIG. 2A, FIG. 4A)) is “significantly more effective at preventing the aggregation”. For the same compound, the “α-syn oligomer formation (PICUP), dose dependence” value at α-syn [1] (3.125-50 μM) is “reduced the oligomer formation in a dose-dependent manner”. Moreover, the “α-syn oligomer formation (PICUP)” value at α-syn [1] (listed as 5-nitro-1,2-benzothiazol-3-amine) was “reduced α-syn and tau isoform 2N4R oligomer formation”; on α-syn [1] (listed as nitro-1,2-benzothiazol-3-amine) it was “reduced the oligomer formation”. For the same compound, the “tau isoform 2N4R oligomer formation (PICUP), dose dependence” value on tau isoform 2N4R (3.125-50 μM) is recorded as “reduced the oligomer formation in a dose-dependent manner”. Moreover, the “tau isoform 2N4R oligomer formation (PICUP)” value on tau isoform 2N4R (compound 50 μM) was “reduced α-syn and tau isoform 2N4R oligomer formation”. Further, the “α-syn fibrils by TEM” value at α-syn [2] was “clear effect in reducing α-syn and tau fibrillization”.
